SMILES strings stand for the structures.

In the assay the test system is Pyrenophora teres. Briefly: Pyrenophora teres test (barley)/shoot treatment, field experiment. The class given is in vivo, Pyrenophora teres on barley. To be noted: shoot treatment after flag leaf emergence, 62.5 g/ha, scoring long-term effect, 41 days post-application. How it is done: Pyrenophora teres Test (Barley)/shoot Treatment, Field Experiment
To prepare a suitable preparation of active substance, a “commercially available” formulation of active substance or active substance combination is diluted with water to give the desired concentration.
The active substance preparation is applied at the application rate stated, after the flag leaf has emerged.
The evaluation is carried out at the point in time at which the disease symptoms are complete and readily recognizable. In this context, 0% means an efficacy which corresponds to that of the control, while an efficacy of 100% means that no disease is observed.
The expected efficacy in % of the untreated control was calculated using the equation
In this equation, x and y mean the efficacy—expressed in % of the untreated control—which the two products achieve when applied separately. If the actual efficacy of the active substance combination exceeds the value for the expected efficacy (E) as calculated by the above formula, then the effect is superadditive, i.e. a synergistic effect exists.

Regarding `Cn1cc(C(=O)Nc2ccc(F)cc2-c2ccc(Cl)c(Cl)c2)c(C(F)F)n1` [III-23, N-(3′,4′-dichloro-5-fluoro-1,1′-biphenyl-2-yl)-3-(difluoromethyl)-1-methyl-1H-pyrazole-4-carboxamide], the “Efficacy in % found” value stood at 40%.
